Experimental data from paper PMC8586700 (Frontiers in Pharmacology, 2021).
Where two headings read alike, the source gives them in different places.

Tests used:
[1] = Stability experiment in plasma and brain homogenate samples; format: in vitro ADME, SD rats
Experimental: Three blank samples of plasma and brain homogenate of SD rats were added into the mixed standard solution. The stability experiment included placing at room temperature for 12 h, repeatedly freeze-thaw for three times and frozen for 15 days.

[2] = Repeated administration, drug concentrations of plasma and brain; format: in vivo, SD rats; conditions: for Mean concentrations±sd, DHC in plasma after multiple doses: loading dose then half doses for four consecutive days
Experimental: (§1) Plasma or brain homogenate of SD rats was taken 50 μL, internal standard solution of 50 μL and protein precipitator of 150 μL were added. After eddy oscillation for 3 min, supernatant was separated by centrifugation.
The concentration of drugs in plasma and brain homogenate after repeated administration was determined according to the same grouping and administration method. The loading dose of 200 mg kg^−1 was given for the first time and half doses for four consecutive days.
(§2) Plasma was collected by centrifugation of blood at 3000 RPM for 10min, and stored at -80 °C. Brain tissue of SD rat was dissected, weighed and added with normal saline at a volume of 2 ml g^−1. After homogenating brain tissue for 3 min by a homogenizer at 14,000 RPM, the supernatant was collected after centrifugation at 12,000 RPM for 10 min.

[3] = Pharmacokinetic experiment, single intragastric administration, plasma by HPLC-UV; format: in vivo, SD rats; conditions: for AUC / Cmax / half-life / Tmax / concentration at 40 min / concentration at 60 min / concentration at 90 min / concentration at 150 min / concentration at 210 min: SD (Sprague-Dawley); for AUC / Cmax / half-life / Tmax / concentration at 40 min / concentration at 60 min / concentration at 90 min / concentration at 150 min / concentration at 210 min / concentration at 20 min / concentration at 270 min / concentration at 330 min: rat, plasma, po; for AUC / Cmax / half-life / Tmax: 200 mg/kg; for AUC: read-out: AUC(0-tn) of DHC (converted); for Cmax: read-out: Cmax of DHC; for half-life: read-out: T1/2 of DHC; for Tmax: read-out: Tmax of DHC (converted); for concentration at 40 min / concentration at 60 min / concentration at 90 min / concentration at 150 min / concentration at 210 min / concentration at 20 min / concentration at 270 min / concentration at 330 min: read-out: Mean concentrations ±sd, DHC; for concentration at 20 min / concentration at 270 min / concentration at 330 min: SD
Experimental: An Agilent 1200 HPLC system was used. […] The flow rate was set at 1 ml min^−1 and detection wavelength was 420, 340 and 323 nm. Injection volume was 5 μL. The column temperature was set at 30°C.
as §1
Blood samples were collected from tail vein at 20 min, 40 min, 1, 1.5, 2.5, 3.5, 4.5, and 5.5 h after intragastric administration.
as §2

[4] = Group A: CUR 200 mg kg^−1 oral alone
[5] = Group B: CUR 200 mg kg^−1 and PIP 150 mg kg^−1 oral
[6] = Group C: CUR 200 mg kg^−1 and ILE 150 mg kg^−1 oral
[7] = Group A (CUR 200 mg kg^−1 oral alone)
[8] = Group B (CUR 200 mg kg^−1 and PIP 150 mg kg^−1 oral)
[9] = Group C (CUR 200 mg kg^−1 and ILE 150 mg kg^−1 oral)
[10] = combined CUR and ILE compared with CUR alone
[11] = combined CUR and ILE compared with combined administration with PIP
[12] = combined CUR and PIP compared with single CUR administration

COc1cc(/C=C/C(=O)CC(=O)CCc2ccc(O)c(OC)c2)ccc1O [DHC, Dihydrocurcumin]
Recoveries after repeated freezing-thawing for three times ([1]; plasma): over 100%
Recoveries after being kept at room temperature for 12 h ([1]; plasma samples): less than 30%
Mean concentrations±sd, DHC in plasma after multiple doses ([2]; Group I: CUR): 1400 ± 600 ng/mL
Mean concentrations±sd, DHC in plasma after multiple doses ([2]; Group II: CUR and PIP): 4600 ± 1800 ng/mL
Mean concentrations±sd, DHC in plasma after multiple doses ([2]; Group III: CUR and ILE): 8700 ± 2500 ng/mL
Detection in brain tissue ([2]; after repeated administration): could not be detected
CL of DHC [3, 4]: 233.2 ± 7.8 mL/min
Vd of DHC [3, 4]: 9,087.6 ± 302.9 mL
CL of DHC [3, 5]: 70.0 ± 3.3 mL/min
Vd of DHC [3, 5]: 2,802.6 ± 133.4 mL
CL of DHC [3, 6]: 52.7 ± 2.3 mL/min
Vd of DHC [3, 6]: 3,751.4 ± 165.6 mL
AUC [3, 4]: 7610 ng·h/mL
Cmax [3, 4]: 6100 ± 3200 ng/mL
half-life [3, 4]: 24.8 ± 9.3 min
Tmax [3, 4]: 26 min
AUC [3, 5]: 7060 ng·h/mL
Cmax [3, 5]: 7500 ± 1100 ng/mL
half-life [3, 5]: 25.4 ± 6.3 min
Tmax [3, 5]: 22 min
AUC [3, 6]: 16800 ng·h/mL
Cmax [3, 6]: 9200 ± 2400 ng/mL
half-life [3, 6]: 114 ± 31.2 min
Tmax [3, 6]: 18 min
concentration at 40 min [3, 7]: 3500 ± 900 ng/mL
concentration at 60 min [3, 7]: 1800 ± 500 ng/mL
concentration at 90 min [3, 7]: 1400 ± 500 ng/mL
concentration at 150 min [3, 7]: 1200 ± 700 ng/mL
concentration at 210 min [3, 7]: 1100 ± 300 ng/mL
concentration at 40 min [3, 8]: 4000 ± 600 ng/mL
concentration at 60 min [3, 8]: 2600 ± 500 ng/mL
concentration at 90 min [3, 8]: 2000 ± 400 ng/mL
concentration at 150 min [3, 8]: 1000 ± 300 ng/mL
concentration at 210 min [3, 8]: 600 ± 200 ng/mL
concentration at 40 min [3, 9]: 6300 ± 700 ng/mL
concentration at 60 min [3, 9]: 4800 ± 700 ng/mL
concentration at 90 min [3, 9]: 4000 ± 1200 ng/mL
concentration at 150 min [3, 9]: 3800 ± 700 ng/mL
concentration at 210 min [3, 9]: 2600 ± 100 ng/mL
concentration at 20 min [3, 7]: 6100 ± 3200 ng/mL
concentration at 270 min [3, 7]: 900 ± 400 ng/mL
concentration at 330 min [3, 7]: 800 ± 400 ng/mL
concentration at 20 min [3, 8]: 7500 ± 1100 ng/mL
concentration at 270 min [3, 8]: 250 ± 30 ng/mL
concentration at 330 min [3, 8]: 150 ± 30 ng/mL
concentration at 20 min [3, 9]: 9200 ± 2400 ng/mL
concentration at 270 min [3, 9]: 1400 ± 700 ng/mL
concentration at 330 min [3, 9]: 600 ± 200 ng/mL
AUC(0-tn) of DHC increased by [3, 10]: 1.2 times
CL of DHC reduced by [3, 10]: 77.4%
Cmax of DHC increased by [3, 10]: 50.8%
T1/2 of DHC increased by [3, 10]: 3.6 times
Tmax of DHC decreased by [3, 10]: 30.8%
Vd of DHC reduced by [3, 10]: 58.6%
Vd of DHC increased by ([3]; combined CUR and ILE compared with CUR and PIP combined): 34%
CL of DHC reduced by ([3]; combined CUR and ILE compared with CUR combined with PIP): 24.6%
AUC(0-tn) of DHC increased by [3, 11]: 1.4 times
Cmax of DHC increased by [3, 11]: 22.7%
T1/2 of DHC increased by [3, 11]: 3.5 times
Tmax of DHC decreased by [3, 11]: 18.2%
AUC(0-tn) of DHC decreased by [3, 12]: 7.2%
CL of DHC decreased by [3, 12]: 70%
Cmax of DHC increased by [3, 12]: 23%
Tmax of DHC decreased by [3, 12]: 15.4%
Vd of DHC decreased by [3, 12]: 69.2%
